Results from patent US20210228463A1, “COMPOSITION FOR FAT FORMATION INHIBITION AND BODY FAT REDUCTION, CONTAINING HYDRANGENOL AS ACTIVE INGREDIENT” (COSMAX BIO CO., LTD., priority 2019, published 2021).

Legend:
[1] = Changes of blood triglyceride and blood cholesterol by WHS; type: in vivo; settings: blood, obese mice (HFD) + oral orlistat
Procedure: (§1) To analyze in vivo anti-obesity efficacy of WHS, animal models of obesity were first prepared. 8-week-old male C57BL/6N mice (specific-pathogen-free (SPF) grade, 20±2 g, Orient Bio) were set into 7 groups as follows, and 10 mice per each group were tested: as normal control groups, normal mice (con) with no high fat diet and no administration, and obese mice (HFD) with induction of obesity by 30% high fat diet and no administration, and as a positive control group, obese mice with oral administration of orlistat which is an anti-obesity agent. As experimental groups, obese mice with oral administration of WHS of 75 mg/kg, 150 mg/kg, or 300 mg/kg, and normal mice with oral administration of WHS of 300 mg/kg were used. Further, experiments were performed by dividing mice into those which were administered with WHS for 12 weeks at the same time with induction of obesity, and those which were administered with WHS after induction of obesity for 10 weeks. WHS was orally administered for 5 days per week during the administration period. A dark: light cycle was maintained at intervals of 12 hours: 12 hours, and mice were allowed to free access to water. To analyze the effects of WHS on blood triglyceride and blood cholesterol, a hematological-biochemical test of the WHS-administered group with induction of obesity was performed using a biochemical analyzer (AU480 Chemistry Analyzer, Beckman coulter, Calif., USA).

[2] = Effects of WHS on liver and kidney (serum GOT, GPT, BUN); type: in vivo; settings: obese mice (HFD) + oral orlistat
Procedure: as §1, with “examine whether” for “analyze the effects of”, “induced liver and kidney damage in mice, glutamic oxalacetic transaminase (GOT), glutamic pyruvate transaminase (GPT),” for “on blood triglyceride”, “urea nitrogen (BUN)” for “cholesterol, a hematological-biochemical test”, “were measured by serum analysis” for “was performed”

forkhead box 01 (FoxO1) = test: Western blotting of p-FOXO1 in adipocytes; type: cell-based; settings: 3T3-L1 differentiated for 10 days, hydrangenol 2.5 ug/ml, 24 hours, FIG. 3
Procedure: (§2) The mechanism of reducing triglyceride in adipocytes was examined for the hydrangenol-containing hydrangea (Hydrangea serrata) and hydrangenol. A pre-adipocyte 3T3-L1 was differentiated for 10 days and treated with hydrangea (Hydrangea serrata) (25 ug/ml) and hydrangenol (2.5 ug/ml) for 24 hours, respectively. Thereafter, the cells were lysed using a modified LIPA buffer, and each 20 ug thereof was used for analysis. p-mTOR(ab109268, Abcam), p-FOXO1(9461S, Cell Signaling), PPARγ(sc-7273, Santa Cruz), and β-actin(A5316, Sigma) primary antibodies were used for analysis, respectively.

3T3-L1 cells = test: Fat accumulation inhibition in adipocytes (Oil Red O staining); type: cell-based; settings: 3T3-L1 adipocytes, hydrangenol 2.5 ug/ml
Procedure: In this experiment, to induce adipocyte differentiation, 3T3-L1 cells were dispensed onto a plate and cultured in a 10% BS medium until the cell density reached 100%. At the cell differentiation stage, hydrangenol-containing hydrangea (Hydrangea serrata) (25 ug/ml), hydrangenol (2.5 ug/ml) or a positive control pioglatazone (10 uM) was added to a 10% FBS differentiation medium (5 μg/ml of insulin, 1 μM dexametasone, 0.5 mM 3-isobutyl-1-methylxanthine), respectively. After 10 days of treatment oil Red-O staining and quantitative analysis were performed to determine how much fat accumulation was inhibited. For visual evaluation, images were taken after staining, and then the stained cells were completely dried, dissolved in dimethyl sulfoxide (DMSO), transferred to a 96-well plate, and absorbance at 450 nm was measured.

white adipocytes = test: Adipocyte size-reducing effects of HG; type: in vivo, mice; settings: epididymal fat, HG administered; FIG. 16
Procedure: To analyze in vivo anti-obesity efficacy of HG, animal models of obesity were prepared. 8-week-old male C57BL/6N mice (SPF grade, 20±2 g, Orient Bio) were set into 7 groups as follows, and 10 mice per each group were tested: as normal control groups, normal mice (con) with no high fat diet and no administration, and obese mice (HFD) with induction of obesity by 30% high fat diet and no administration, and as a positive control group, obese mice with oral administration of orlistat which is an anti-obesity agent. As experimental groups, obese mice with oral administration of HG of 20 mg/kg, 40 mg/kg, or 80 mg/kg, and normal mice with oral administration of HG of 80 mg/kg were used. Mice were administered with HG at the same time with induction of obesity, and HG was administered for 5 days per week for 12 weeks. A dark: light cycle was maintained at intervals of 12 hours: 12 hours, and mice were allowed to free access to water.
For histological analysis, the epididymal fat tissues of mice were fixed in 4% paraformalin. Dehydration was performed several times through graded alcohol series and washing, and each tissue was embedded in paraffin. Each tissue section was cut at a thickness of 4 μm, and stained with hematoxylin and eosin. In order to examine the size of white adipocytes, the adipocyte area of each section was measured with cellSence software (Olympus Co., USA). […]

PPARγ = test: Western blotting of PPARγ expression in adipocytes; type: cell-based; settings: 3T3-L1 differentiated for 10 days, hydrangenol 2.5 ug/ml, 24 hours, FIG. 3
Procedure: as §2

[3] = tested on: mammalian target of rapamycin (mTOR); test: Western blotting of p-mTOR in adipocytes; type: cell-based; settings: 3T3-L1 differentiated for 10 days, hydrangenol 2.5 ug/ml, 24 hours, FIG. 3
Procedure: as §2

Row | BUN [2] [mg/dL] | GOT [2] [U/L] | GPT [2] [U/L] | Structure (SMILES) | CHOL [1] [mg/dL] | HDL [1] [mg/dL] | LDL [1] [mg/dL] | TG [1] [mg/dL] | phosphorylation of forkhead box 01 (FoxO1) (forkhead box 01 (FoxO1)) | triglyceride production in adipocytes (3T3-L1 cells) | adipocyte size (white adipocytes) | expression level of peroxisome proliferator-activated receptor gamma y (PPAR) (PPARγ) | phosphorylation of mammalian target of rapamycin (mTOR) [3]
1 | 19.89 | 63 | 17.6 | CCCCCCCCCCC[C@@H](C[C@@H]1OC(=O)[C@H]1CCCCCC)OC(=O)[C@H](CC(C)C)NC=O [Orlistat, orlistat] | 115.63 | 83.70 | 8.60 | 76.40 | – | – | – | – | –
2 | – | – | – | O=C1OC(c2ccc(O)cc2)Cc2cccc(O)c21 (stereo not drawn) [HG, 8-hydroxy-3-(4-hydroxyphenyl)-3,4-dihydroisochromen-1-one] | – | – | – | – | increase | suppressed | reduced | reduction | reduce
